Tests used:
[1] = system: C2C12 muscle cells; test: Measurement of protein synthesis in C2C12 cells (radio-labeled leucine incorporation); type: cell-based; settings: for effect on protein synthesis in C2C12 muscle cells: 150 min incubation, radio-labeled leucine, versus DMSO control
Protocol: The cells are counted and seeded at the density of 20 000 cells per well in a 24-well plate in DMEM medium containing glucose in a proportion of 4.5 g/l and supplemented with fetal calf serum (10%) and with antibiotics (penicillin and streptomycin). Forty-eight hours layer, the myoblasts are induced to differentiate by partial serum deprivation (2% instead of 10%) for 5 days. The cells are then placed in medium without glucose or leucine (Krebs medium) for 1 h at 37° C., then incubated for 150 min in the presence of the products to be tested (DMSO (control), kynurenic acid or anthranilic acid or quinolinic acid or picolinic acid or 3OH-kynurenine) or reference (IGF-1, 100 ng/ml) in serum-free DMEM medium containing 2.5 μCi/ml radio-labeled leucine. At the end of the incubation, the supernatants are removed and the cells are lysed in 0.1N NaOH solution for 30 min. The radioactivity is measured in the cell fraction and the total amount of proteins is determined by assaying according to the Lowry method. Each condition is evaluated at least with n=6; IGF-1, 100 ng/ml is our control for stimulating protein synthesis. The results are expressed in cpm/μg of proteins after 150 min of incubation or as a percentage relative to the control condition. The results are expressed as % of the control and a statistical test is carried out: Dunnett's or Dun test (*p<0.05, **p<0.01, ***p<0.001 versus control). The results obtained with kynurenic acid, anthranilic acid, quinolinic acid, picolinic acid and 3OH-kynurenin are represented in FIGS. 1 to 5.

[2] = system: loss of muscle mass; settings: mice on a protein-poor diet, supplementation; cited from earlier work
[3] = system: C2C12 muscle fibers; test: Evaluation of the diameter of the C2C12 muscle fibers; type: cell-based; settings: incubation for 3 days, 100 μM
Protocol: The C2C12 myoblast cells (ATCC CRL-1772) are seeded in 8-well plates treated with glycerol, at the density of 10 000 cells per well and cultured in DMEM medium containing glucose in a proportion of 4.5 g/l and supplemented with fetal calf serum (10%) and with antibiotics (penicillin and streptomycin). Forty-eight hours layer, the myoblasts are induced to differentiate by partial serum deprivation (2% instead of 10%) for 3 days. The cells are then placed in a serum-free, glucose-depleted medium (DMEM containing 1 g/l of glucose) in the presence of the molecules to be tested (DMSO (control) or kynurenic acid) or the references (IGF-1 at the concentration of 10 ng/ml or dexamethasone at 10 μM) for 3 days. At the end of the culture, the cells are rinsed and fixed using a 2.5% glutaraldehyde/0.1% triton solution for 1 h at ambient temperature. The cell layer is covered with DAPI (fluorescent labeling of the cell nucleus). After storage in the dark for 16 h in the cold, the slides are observed under a fluorescence microscope (Carl Zeiss, AxioVert 200) and the images are analyzed using the Axiovision 4.1 software for measuring the diameter of the fibers. A representative image of each condition is shown. A statistical test is carried out: Dunnett's or Dun test (*p<0.05, **p<0.01, ***p<0.001 versus control). The results obtained with kynurenic acid are represented in FIG. 7.

[4] = system: muscle atrophy induced by immobilization; test: Muscle atrophy induced by immobilization in mice; type: in vivo; settings: CD1 mice, 7 days immobilization, 3 mg/kg per day in the drinking water, compared with control group
Excerpt: Limb immobilization is known to induce skeletal muscle atrophy involving mechanisms linked to protein degradation, to a change in muscle fiber types, to oxidative stress or inflammatory mechanisms. Briefly, male 8-9-week-old CD1 mice were used in this study. The foot of the left hindlimb was immobilized for 7 days according to the procedure described by Caron et al. (2009), in the dorso-tibial flexion position, by means of a surgical staple. The other foot (right hindlimb) is used as a control. For the duration of the immobilization, one group of animals (n=12) received a treatment with kynurenic acid (3 mg/kg per day) in the drinking water. Another group of animals served as a control (n=16 animals). At the end of the 7 days of study, the animals were sacrificed in order to remove the Tibialis anterial muscle from the two hindlimbs. For each animal, the difference between the weight of the muscle of the immobilized limb and the free limb is calculated, then related back to the bodyweight. The results are expressed as weight loss of the immobilized limb relative to the control limb (in mg per g of body weight), and a statistical test is carried out: Student's test (*p<0.05, **p<0.01, ***p<0.001 versus control group).

[5] = system: myostatin gene expression in C2C12 muscle cells; test: Measurement of myostatin gene expression in C2C12 cells (RT-qPCR); type: cell-based; settings: 6 hours of incubation, standardized to beta-actin
Protocol: The C2C12 myoblast cells (ATCC CRL-1772) are seeded in 24-well plates at the density of 30 000 cells per well and cultured in a DMEM medium containing glucose in a proportion of 4.5 g/l and supplemented with fetal calf serum (10%) and with antibiotics (penicillin and streptomycin). Forty-eight hours later, the myoblasts are induced to differentiate by partial serum deprivation (2% instead of 10%) for 5 days. The cells are then placed in a serum-free, glucose-depleted medium (DMEM containing 1 g/l of glucose) in the presence of the molecules to be tested (DMSO (control) or IGF-1 (100 ng/ml) or kynurenic acid) or of the references (IGF-1 at the concentration of 100 ng/ml) for 6 h. […] The samples analyzed all contain […] of cDNA, a qPCR buffer including the enzyme, the oligonucleotide mixture and the intercalating agent (sybergreen), and the pair of primers specific for the gene studied, strategically chosen between two exon sequences and at the final concentration of 200 nM. […] A fluorescence threshold is established by the program of the machine. […] It is this value which forms the basis for the calculations to relatively quantify the DNA. […] The primers used are given in table 1 below: At the end of the incubation, the expression of the myostatin gene is measured by RT-qPCR and standardized using the beta-actin housekeeping gene. […]

For `Nc1c(O)cccc1C(=O)C[C@H](N)C(=O)O` [3OH-kynurenine, reference compound], which “effect on protein synthesis in C2C12 muscle cells” value (shortened to “effect on protein synthesis”) [1] is on record?
Its value is “no effect on protein synthesis”.

With `Nc1ccccc1C(=O)C[C@H](N)C(=O)O` [L-kynurenine] as the compound, how does the “effect on loss of muscle mass” value [2] read?
Its value is “varies according to the dose tested (beneficial or negative)”.

With `N[C@@H](Cc1c[nH]c2ccccc12)C(=O)O` [TRP, Tryptophan] as the compound, how does the “effect on loss of muscle mass” value [2] read?
The value was “capable of reducing the loss of muscle mass”.

For `Nc1ccccc1C(=O)O` [anthranilic acid], which “effect on protein synthesis” value [1] is on record?
Its value is “significantly induce protein synthesis”.

What does the source list for `O=C(O)c1cc(=O)c2ccccc2[nH]1` [kynurenic acid]?
effect on protein synthesis in C2C12 muscle cells [1]: significantly induce protein synthesis; dose dependence of stimulation of protein synthesis ([1]; after 150 min of incubation): dose-dependent stimulation of protein synthesis; size (diameter) of the C2C12 muscle fibers [3]: increase in the size of the C2C12 muscle fibers; loss of muscle (Tibialis anterior) mass induced by immobilization [4]: significantly decreases the loss of muscle; myostatin gene expression [5]: significant dose-dependent inhibition

For `O=C(O)c1ccccn1` [picolinic acid], which “effect on protein synthesis” value [1] is on record?
The value was “significantly induce protein synthesis”.

Which “effect on protein synthesis” value [1] does the source give for `O=C(O)c1cccnc1C(=O)O` [quinolinic acid] here?
The value was “significantly induce protein synthesis”.

Reference: patent US11369595B2, “Use of tryptophan metabolites for treating muscle atrophy” (METABRAIN RESEARCH, priority 2016, dated 2022)
